According to publication PMC10487970, “Exploring the Impact of Head Group Modifications on the Anticancer Activities of Fatty-Acid-like Platinum(IV) Prodrugs: A Structure–Activity Relationship Study” (International Journal of Molecular Sciences, 2023):

Legend:
[1] = system: A2780cis ovarian cancer cells; test: MTT cytotoxicity assay, A2780cis; type: cell-based, human; conditions: 24 h treatment, cisplatin-resistant A2780cis
Protocol: (§1) Cytotoxicity profiles of FALP derivatives with various head groups . The in vitro anticancer activity of the Pt(IV) prodrugs (1–9) was assessed using the 3-(4,5-dimethylthiazol-2-yl)-2,5-diphenyltetrazolium bromide (MTT) assay. This study utilized two human cancer cell lines, namely A2780cis and MDA-MB-231. A2780cis is an ovarian cancer cell line known for its resistance to conventional platinum chemotherapy, making it a formidable challenge to treat. On the other hand, MDA-MB-231 represents a triple-negative breast cancer cell line, which is currently recognized as one of the difficult-to-treat cancer types. The cells were treated with 1–9 or cisplatin for 24 h, and the cell viability was evaluated. The IC50 values, which represent the concentration of the drug required to inhibit the growth of cells by 50%, are reported in the table in Figure 1B. […] Overall, the head group modifications of FALPs result in an alternation of therapeutic effects, which is a promising way to fine-tune the anticancer activity of this class of metallodrugs.
(§2) Cell culture. A2780cis cell lines were purchased from Sigma-Aldrich and cultured in RPMI 1640 with L-glutamine (Corning, New York, NY, USA) supplemented with 10% FBS (Atlanta Biologicals, USA) and 1% penicillin-streptomycin (Corning). The MDA-MB-231 cell line was obtained via American Type Culture Collection, and cultured in DMEM 1 g/L glucose, with L-glutamine and sodium pyruvate (Corning) supplemented with 10% FBS and 1% penicillin-streptomycin (Corning). All cell lines were cultured at 37 °C under an atmosphere containing 5% CO2. Cells were passaged upon reaching 80–90% confluence via trypsinization and split in a 1:5 ratio.
(§3) MTT assays. Cytotoxicity profiles of compounds 1–9 and cisplatin against different cell lines (A2780cis and MDA-MB-231) were evaluated using the MTT assays. A volume of 100 μL of a RPMI or DMEM containing 8 × 10^4 cells/mL was seeded in 96-well plates. The plates were incubated for 24 h at 37 °C with 5% CO2 to allow for adherence of cells. A volume of 50 μL of RPMI or DMEM with various concentrations of cisplatin or compounds 1–9 were added to each well of the microplates. The Pt concentrations were determined via GFAAS. After 24 h, a volume of 30 μL of MTT (5.0 mg/mL in PBS, Alfa Aesar, Haverhill, MA, USA) was added to each well of the microplates. After 24 h, the medium was aspirated, and 200 μL of DMSO was added to each well. The plates were shaken gently on a shaker at r.t. for 10 min. Then, the absorbance of purple formazan was recorded at 562 nm with a BioTek ELx800 plate reader. IC50 values were determined using Origin software v7.0. All experiments were performed in triplicate.

[2] = system: MDA-MB-231 breast cancer cells; test: MTT cytotoxicity assay, MDA-MB-231; type: cell-based, human; conditions: 24 h treatment, triple-negative MDA-MB-231
Protocol: as §1, §2, §3

[3] = system: mitochondrial ROS in A2780cis cells; test: Flow cytometric analysis of MitoSOX (mitochondrial ROS); type: cell-based, human; conditions: [Pt] = 10 μM, 24 h, control 41.1%
Protocol: (§4) Cellular Responses of FALP derivatives with head groups of different hydrophobicity. Based on the observation that hydrophilic head group modifications lead to increased intracellular Pt levels, we formulated the hypothesis that such modifications would result in greater mitochondrial and DNA damage, as well as increased apoptosis. MitoSOX was utilized to assess the levels of mitochondrial ROS, while the γH2AX levels were analyzed to determine DNA damage. As mitochondrial and DNA damage are known to promote apoptosis, Annexin V/PI assays were also conducted to examine the apoptotic effects. A flow cytometric analysis was used to evaluate the mitochondrial ROS, γH2AX, and apoptosis in the cancer cells treated with FALPs (2 and 7) in the experiments. […] Based on the results, it can be inferred that the FALP derivative (2) with a hydrophilic head group modification induces mitochondrial and DNA damage as well as apoptosis more effectively than the one (7) with a hydrophobic modification.
Flow cytometric analysis of MitoSOX. A2780cis cells were seeded in 6-well plate at a concentration of 6 × 10^4 cells/mL and incubated overnight. […] The cells were then re-suspended in PBS with 0.5% BSA to reach 10^6 cells/mL and analyzed with BD Accuri C6 flow cytometer using FL-2 channel, and data were processed with FlowJo v10.

[4] = GFAAS analysis of Log P values (H2O:octanol); type: physicochemical; conditions: H2O:octanol 1:1, Pt content of each phase by GFAAS; whole compound
Protocol: The samples were first dissolved with DMSO to create 200 µM stocks. From these stocks, 50 µL was added to a H2O:Octanol mixture with a 1:1 volume ratio. This mixture was vortexed for 5 min and subsequently centrifuged for 3 min at 3000 rpm. Following centrifugation, the H2O and octanol layers were isolated for analysis. The Pt content in each phase was quantified using GFAAS to calculate the Log P value.

[5] = system: A2780cis cells; test: GFAAS analysis of cellular platinum contents; type: cell-based, human; conditions: [Pt] = 1 μM, 24 h
Description: (§5) Cell entry and mitochondrial accumulation of FALP derivatives with head groups of different hydrophobicities. Our next objective was to gain a more detailed understanding of how modifications to the head group of FALPs affect their anticancer activities through hydrophobicity. Cellular uptake is widely recognized as a critical factor in the activity of metallodrugs. The influence of hydrophobicity on the cellular uptake of therapeutic molecules has been widely acknowledged, with an increase in hydrophobicity typically promoting cell entry. To this end, we conducted a graphite furnace atomic absorption spectroscopic (GFAAS) analysis of the cellular uptake for FALPs with various head group modifications, including 2 and 7. […] We previously discovered that mitochondria play significant roles in the mechanism of action of FALPs, so we further investigated how the hydrophobicity of the head group modifications affects the mitochondrial accumulation of FALPs. […] In summary, the introduction of a hydrophilic head group in FALPs promotes cell entry and mitochondrial accumulation.
GFAAS analysis of cellular platinum contents in A2780cis cells. […] The remaining live cells were harvested via trypsinization and counted. […] The Pt contents in the cells were analyzed via GFAAS. […]

[6] = system: mitochondria of A2780cis cells; test: Measurement of mitochondrial platinum contents; type: cell-based, human; conditions: [Pt] = 1 μM, 24 h, isolated mitochondria, GFAAS
Description: as §5
Measurements of mitochondrial platinum contents in A2780cis cells. […] Next, the wells were washed with PBS (1 mL) and harvested via trypsinization (1 mL) and counted. […] Next, the fractions were diluted 4× in water and the platinum content was analyzed using GFAAS. […]

[7] = system: A2780cis cells; test: Flow cytometric analysis of apoptosis (Annexin V/PI); type: cell-based, human; conditions: [Pt] = 0.5 μM, 48 h
Protocol: as §4
Flow cytometric analysis of apoptosis. A2780cis cells were seeded in a 6-well plate at a concentration of 3 × 10^5 cells/well. Cells were then incubated at 37 °C 5% CO2 for 24 h. […] Both live and dead cells were collected, resuspended in 1mL PBS, and counted. […] Cells were then analyzed with FL-1 and FL-3 channels on a BD Accuri C6 flow cytometer and data were processed with FlowJo.

[8] = system: A2780cis cells; test: LIVE/DEAD cell viability imaging assay; type: cell-based, human; conditions: [Pt] = 1 μM, 24 h
Protocol: LIVE/DEAD cell viability assays. […] Before the assay, the cells were washed with 1 mL PBS and 1 mL dye-free RPMI to remove serum esterase activity that is generally present in serum-supplemented growth media. A 100 μL volume of LIVE/DEAD working solution (formed by mixing 2 µM of calcein AM and 2 μM ethidium homodimer-1 in PBS) was carefully added to the disk, which was then incubated at r.t. for 30 min. Images were acquired using an Olympus IX70 inverted epifluorescence microscope equipped with a digital CCD camera (QImaging, Surrey, BC, Canada). Images were processed, and intensities were quantified with ImageJ software (NIH).

With `N.N.[Cl][Pt][Cl]` [Cisplatin, cisplatin, reference compound] the IC50 [1] was 109 ± 13.5 µM, the IC50 [2] was 92 ± 8 µM and the “MitoSOX (mitochondrial ROS, flow cytometry)” value [3] was “insignificant change”.

`CCCCCCCCCCCCCCCCNC(=O)[O][Pt]([Cl])([Cl])[O]C(=O)CCC(=O)O.N.N` [Compound 1] gave an IC50 [1] of 1 ± 0.06 µM and an IC50 [2] of 6.3 ± 0.4 µM.

In the case of `CCCCCCCCCCCCCCCCNC(=O)[O][Pt]([NH2])([NH2])([Cl])([Cl])[O]C(=O)CCC(=O)NCCOCCO` [Compound 2], the IC50 [1] is reported as 0.3 ± 0.06 µM, the IC50 [2] is reported as 0.76 ± 0.03 µM and the “Log P determined via GFAAS” value [4] is reported as 1.97. For the same molecule, the “Cellular uptake (cellular Pt content)” value [5] was 496.6 ± 16.09 pmol Pt/million cells, the “Mitochondrial Pt content” value [6] was 31.7 ± 5.1 pmol Pt/million cells and the “Apoptosis, Annexin V/PI plot, upper right quadrant (late stages of apoptosis)” value [7] was 23.3%. The “Live/dead cell imaging result” value [8] was “effectively eliminated all drug-resistant A2780cis ovarian cancer cells”.

Molecule `CCCCCCCCCCCCCCCCNC(=O)[O][Pt]([NH2])([NH2])([Cl])([Cl])[O]C(=O)CCC(=O)NCCOC` [Compound 3] has an IC50 [1] of 0.7 ± 0.04 µM and an IC50 [2] of 1.9 ± 0.3 µM.

Work on `CCCCCCCCCCCCCCCCNC(=O)[O][Pt]([NH2])([NH2])([Cl])([Cl])[O]C(=O)CCC(=O)NCC#N` [Compound 4] yielded an IC50 [1] of 0.41 ± 0.05 µM and an IC50 [2] of 1.63 ± 0.12 µM.

`CCCCCCCCCCCCCCCCNC(=O)[O][Pt]([NH2])([NH2])([Cl])([Cl])[O]C(=O)CCC(=O)NCC(=O)OCC` [Compound 5] gave an IC50 [1] of 0.39 ± 0.08 µM and an IC50 [2] of 5.22 ± 1.03 µM.

For `CCCCCCCCCCCCCCCCNC(=O)[O][Pt]([NH2])([NH2])([Cl])([Cl])[O]C(=O)CCC(=O)NCCC` [Compound 6], the IC50 [1] was 1.12 ± 0.07 µM and the IC50 [2] was 1.5 ± 0.4 µM.

With `CCCCCCCCCCCCCCCCNC(=O)[O][Pt]([NH2])([NH2])([Cl])([Cl])[O]C(=O)CCC(=O)NCCCCCC` [Compound 7] the IC50 [1] was 3.75 ± 0.47 µM, the IC50 [2] was 7.05 ± 0.8 µM and the “Log P determined via GFAAS” value [4] was 2.57. The “Cellular uptake (cellular Pt content)” value [5] was 60.03 ± 8.01 pmol Pt/million cells, the “Mitochondrial Pt content” value [6] was 11.72 ± 2.76 pmol Pt/million cells and the “Apoptosis, Annexin V/PI plot, upper right quadrant (late stages of apoptosis)” value [7] was 3.58%. For the same molecule, the “Live/dead cell imaging result” value [8] was “ineffective”.

For `CCCCCCCCCCCCCCCCNC(=O)[O][Pt]([NH2])([NH2])([Cl])([Cl])[O]C(=O)CCC(=O)NC12CC3CC(CC(C3)C1)C2` [Compound 8], the IC50 [1] was 5.07 ± 0.71 µM and the IC50 [2] was 6.09 ± 0.3 µM.

Molecule `CCCCCCCCCCCCCCCCNC(=O)CCC(=O)[O][Pt]([NH2])([NH2])([Cl])([Cl])[O]C(=O)NCC(=O)OCC` [Compound 9] has an IC50 [1] of 0.4 ± 0.01 µM and an IC50 [2] of 1.42 ± 0.07 µM.
